According to ChEMBL document CHEMBL3885861, “Open TG-GATES”:

Species: Rattus norvegicus
Experiment: Open TG-GATES - Regimen: Daily Repeat
Format: toxicity, organism-based, Sprague-Dawley
Parameters: regimen Daily Repeat, gender Male, age 6 weeks
Conditions: in vivo, po, 50 mg/kg, route gavage, dose level Middle; for APTT / Bas / Eos / Fbg / Hb / Ht / Lym / MCH / MCHC / MCV / Mono / Neu / PT / Plat / RBC / Ret / WBC: tissue Blood; for KIDNEY_L / KIDNEY_R / KIDNEY_TOTAL: tissue Kidney; for LIVER: tissue Liver; for A/G / ALP / ALT / AST / BUN / CRE / Ca / Cl / DBIL / GLC / IP / K / LDH / Na / PL / RALB / TBIL / TC / TG / TP / gamma-GTP: tissue Plasma

In the case of `CN(C)CCC=C1c2ccccc2CCc2ccccc21` [AMITRIPTYLINE], the TERMINAL_BW (72 h, time 3 day) is reported as 221 g, the APTT (72 h, time 3 day) is reported as 16.6 s and the Bas (72 h, time 3 day) is reported as 0.2%. It also gave an Eos (72 h, time 3 day) of 1%, a Fbg (72 h, time 3 day) of 279.2 mg/dL and a Hb (72 h, time 3 day) of 13.3 g/dL. For the same compound, the Ht (72 h, time 3 day) was 40%, the Lym (72 h, time 3 day) was 80.2% and the MCH (72 h, time 3 day) was 21 pg. The MCHC (72 h, time 3 day) was 33.3%, the MCV (72 h, time 3 day) was 63.1 fL and the Mono (72 h, time 3 day) was 2.6%. For the same compound, the Neu (72 h, time 3 day) was 15.6%, the PT (72 h, time 3 day) was 16.3 s and the Plat (72 h, time 3 day) was 120.1 x10_4/uL. It also gave an RBC (72 h, time 3 day) of 634.6 x10_4/ul, a Ret (72 h, time 3 day) of 6% and a WBC (72 h, time 3 day) of 115.2 x10_2/uL. The KIDNEY_L (72 h, time 3 day) was 0.9 g, the KIDNEY_R (72 h, time 3 day) was 0.9 g and the KIDNEY_TOTAL (72 h, time 3 day) was 1.8 g. The LIVER (72 h, time 3 day) was 10.1 g, the A/G (72 h, time 3 day) was 0.8 and the ALP (72 h, time 3 day) was 1628.8 IU/L. For the same compound, the ALT (72 h, time 3 day) was 49.4 IU/L, the AST (72 h, time 3 day) was 67.6 IU/L and the BUN (72 h, time 3 day) was 16 mg/dL. It also gave a CRE (72 h, time 3 day) of 0.2 mg/dL, a Ca (72 h, time 3 day) of 10.9 mg/dL and a Cl (72 h, time 3 day) of 105.6 meq/L. The DBIL (72 h, time 3 day) was 0.02 mg/dL, the GLC (72 h, time 3 day) was 180.6 mg/dL and the IP (72 h, time 3 day) was 7.8 mg/dL. For the same compound, the K (72 h, time 3 day) was 4.4 meq/L, the LDH (72 h, time 3 day) was 62.8 IU/L and the Na (72 h, time 3 day) was 143.8 meq/L. The PL (72 h, time 3 day) was 158.4 mg/dL, the RALB (72 h, time 3 day) was 2.6 g/dL and the TBIL (72 h, time 3 day) was 0.048 mg/dL. For the same compound, the TC (72 h, time 3 day) was 87 mg/dL, the TG (72 h, time 3 day) was 98.8 mg/dL and the TP (72 h, time 3 day) was 5.8 g/dL. It also gave a gamma-GTP (72 h, time 3 day) of 0.8 IU/L, a TERMINAL_BW ([…], time 7 day) of 255.7 g and a TERMINAL_BW ([…], time 14 day) of 305.2 g. For the same compound, the TERMINAL_BW ([…], time 28 day) was 359.5 g, the APTT ([…], time 7 day) was 15 s and the Bas ([…], time 7 day) was 0.4%. For the same compound, the Eos ([…], time 7 day) was 1%, the Fbg ([…], time 7 day) was 280.6 mg/dL and the Hb ([…], time 7 day) was 13.2 g/dL. It also gave a Ht ([…], time 7 day) of 40%, a Lym ([…], time 7 day) of 74.8% and an MCH ([…], time 7 day) of 20.7 pg. It also gave an MCHC ([…], time 7 day) of 33%, an MCV ([…], time 7 day) of 62.7 fL and a Mono ([…], time 7 day) of 2.8%. For the same compound, the Neu ([…], time 7 day) was 20.4%, the PT ([…], time 7 day) was 15.5 s and the Plat ([…], time 7 day) was 108.4 x10_4/uL. The RBC ([…], time 7 day) was 638 x10_4/ul, the Ret ([…], time 7 day) was 5.2% and the WBC ([…], time 7 day) was 119.8 x10_2/uL. It also gave an APTT ([…], time 14 day) of 16.5 s, a Bas ([…], time 14 day) of 0.2% and an Eos ([…], time 14 day) of 1%. For the same compound, the Fbg ([…], time 14 day) was 299 mg/dL, the Hb ([…], time 14 day) was 14.4 g/dL and the Ht ([…], time 14 day) was 43.2%. It also gave a Lym ([…], time 14 day) of 77.2%, an MCH ([…], time 14 day) of 20.2 pg and an MCHC ([…], time 14 day) of 33.4%. The MCV ([…], time 14 day) was 60.5 fL, the Mono ([…], time 14 day) was 2.8% and the Neu ([…], time 14 day) was 18.2%. For the same compound, the PT ([…], time 14 day) was 16.2 s, the Plat ([…], time 14 day) was 111 x10_4/uL and the RBC ([…], time 14 day) was 713.6 x10_4/ul. It also gave a Ret ([…], time 14 day) of 4%, a WBC ([…], time 14 day) of 107.8 x10_2/uL and an APTT ([…], time 28 day) of 20.1 s. It also gave a Bas ([…], time 28 day) of 0.8%, an Eos ([…], time 28 day) of 0.8% and a Fbg ([…], time 28 day) of 289.6 mg/dL. The Hb ([…], time 28 day) was 15.6 g/dL, the Ht ([…], time 28 day) was 45% and the Lym ([…], time 28 day) was 80.6%. The MCH ([…], time 28 day) was 19.6 pg, the MCHC ([…], time 28 day) was 34.6% and the MCV ([…], time 28 day) was 56.5 fL. It also gave a Mono ([…], time 28 day) of 2.4%, a Neu ([…], time 28 day) of 14.8% and a PT ([…], time 28 day) of 16.6 s. The Plat ([…], time 28 day) was 101.5 x10_4/uL, the RBC ([…], time 28 day) was 797.2 x10_4/ul and the Ret ([…], time 28 day) was 2.1%. The WBC ([…], time 28 day) was 134.2 x10_2/uL, the KIDNEY_L ([…], time 7 day) was 1.1 g and the KIDNEY_R ([…], time 7 day) was 1.1 g. It also gave a KIDNEY_TOTAL ([…], time 7 day) of 2.1 g, a KIDNEY_L ([…], time 14 day) of 1.2 g and a KIDNEY_R ([…], time 14 day) of 1.2 g. The KIDNEY_TOTAL ([…], time 14 day) was 2.3 g, the KIDNEY_L ([…], time 28 day) was 1.4 g and the KIDNEY_R ([…], time 28 day) was 1.4 g. The KIDNEY_TOTAL ([…], time 28 day) was 2.7 g, the LIVER ([…], time 7 day) was 11.1 g and the LIVER ([…], time 14 day) was 12.6 g. The LIVER ([…], time 28 day) was 14.2 g, the A/G ([…], time 7 day) was 0.8 and the ALP ([…], time 7 day) was 1561.4 IU/L. It also gave an ALT ([…], time 7 day) of 47.4 IU/L, an AST ([…], time 7 day) of 69 IU/L and a BUN ([…], time 7 day) of 15.8 mg/dL. It also gave a CRE ([…], time 7 day) of 0.2 mg/dL, a Ca ([…], time 7 day) of 10.9 mg/dL and a Cl ([…], time 7 day) of 104.6 meq/L. For the same compound, the DBIL ([…], time 7 day) was 0.012 mg/dL, the GLC ([…], time 7 day) was 187 mg/dL and the IP ([…], time 7 day) was 7.3 mg/dL. For the same compound, the K ([…], time 7 day) was 3.8 meq/L, the LDH ([…], time 7 day) was 66.4 IU/L and the Na ([…], time 7 day) was 143.6 meq/L. The PL ([…], time 7 day) was 156.4 mg/dL, the RALB ([…], time 7 day) was 2.6 g/dL and the TBIL ([…], time 7 day) was 0.046 mg/dL. It also gave a TC ([…], time 7 day) of 80.4 mg/dL, a TG ([…], time 7 day) of 114 mg/dL and a TP ([…], time 7 day) of 5.8 g/dL. For the same compound, the gamma-GTP ([…], time 7 day) was 1 IU/L, the A/G ([…], time 14 day) was 0.8 and the ALP ([…], time 14 day) was 1627.8 IU/L. The ALT ([…], time 14 day) was 43.4 IU/L, the AST ([…], time 14 day) was 69.6 IU/L and the BUN ([…], time 14 day) was 17 mg/dL. It also gave a CRE ([…], time 14 day) of 0.2 mg/dL, a Ca ([…], time 14 day) of 11 mg/dL and a Cl ([…], time 14 day) of 105.4 meq/L. The DBIL ([…], time 14 day) was 0.022 mg/dL, the GLC ([…], time 14 day) was 186.6 mg/dL and the IP ([…], time 14 day) was 7.2 mg/dL. The K ([…], time 14 day) was 4 meq/L, the LDH ([…], time 14 day) was 72.6 IU/L and the Na ([…], time 14 day) was 143.6 meq/L. For the same compound, the PL ([…], time 14 day) was 156.2 mg/dL, the RALB ([…], time 14 day) was 2.7 g/dL and the TBIL ([…], time 14 day) was 0.05 mg/dL. For the same compound, the TC ([…], time 14 day) was 77.4 mg/dL, the TG ([…], time 14 day) was 145.2 mg/dL and the TP ([…], time 14 day) was 6 g/dL. For the same compound, the gamma-GTP ([…], time 14 day) was 0.6 IU/L, the A/G ([…], time 28 day) was 0.8 and the ALP ([…], time 28 day) was 1098.4 IU/L. For the same compound, the ALT ([…], time 28 day) was 40.8 IU/L, the AST ([…], time 28 day) was 61.8 IU/L and the BUN ([…], time 28 day) was 17.2 mg/dL. It also gave a CRE ([…], time 28 day) of 0.2 mg/dL, a Ca ([…], time 28 day) of 10.3 mg/dL and a Cl ([…], time 28 day) of 104.2 meq/L. The DBIL ([…], time 28 day) was 0.018 mg/dL, the GLC ([…], time 28 day) was 186.6 mg/dL and the IP ([…], time 28 day) was 6.3 mg/dL. For the same compound, the K ([…], time 28 day) was 4 meq/L, the LDH ([…], time 28 day) was 62.4 IU/L and the Na ([…], time 28 day) was 141.6 meq/L. It also gave a PL ([…], time 28 day) of 139.8 mg/dL, an RALB ([…], time 28 day) of 2.8 g/dL and a TBIL ([…], time 28 day) of 0.058 mg/dL. The TC ([…], time 28 day) was 71.4 mg/dL, the TG ([…], time 28 day) was 108 mg/dL and the TP ([…], time 28 day) was 6.3 g/dL. It also gave a gamma-GTP ([…], time 28 day) of 0.6 IU/L.
